Source: patent US20240208992A1, “MACROCYCLES AS CFTR MODULATORS” (Idorsia Pharmaceuticals Ltd, priority 2021, published 2024)

Molecular target: human F508del-CFTR (Homo sapiens, UniProt P13569, DEL508-508)
Test: F508del-CFTR cell surface expression (corrector activity), DiscoveRx ß-galactosidase complementation chemiluminescence assay in recombinant U2OS cell line;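 also: U2OS cells co-expressing ProLink-tagged F508del-CFTR and a membrane-anchored enzyme acceptor, where more surface CFTR restores β-galactosidase activity measured by chemiluminescence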
Details: for EC50: EC50, F508del-CFTR cell surface expression, geomean values; for Emax: U2OS, arithmetic mean values
[1] = U2OS cell line, 16h compound incubation
[2] = in relation to the Emax of the corrector lumacaftor (=100%), U2OS cell line, 16h compound incubation
[3] = U2OS cells, 16h compound incubation
[4] = in relation to Emax of corrector lumacaftor (=100%)

human F508del-CFTR, sequence (P13569 with tags, fused parts or gaps DEL508-508): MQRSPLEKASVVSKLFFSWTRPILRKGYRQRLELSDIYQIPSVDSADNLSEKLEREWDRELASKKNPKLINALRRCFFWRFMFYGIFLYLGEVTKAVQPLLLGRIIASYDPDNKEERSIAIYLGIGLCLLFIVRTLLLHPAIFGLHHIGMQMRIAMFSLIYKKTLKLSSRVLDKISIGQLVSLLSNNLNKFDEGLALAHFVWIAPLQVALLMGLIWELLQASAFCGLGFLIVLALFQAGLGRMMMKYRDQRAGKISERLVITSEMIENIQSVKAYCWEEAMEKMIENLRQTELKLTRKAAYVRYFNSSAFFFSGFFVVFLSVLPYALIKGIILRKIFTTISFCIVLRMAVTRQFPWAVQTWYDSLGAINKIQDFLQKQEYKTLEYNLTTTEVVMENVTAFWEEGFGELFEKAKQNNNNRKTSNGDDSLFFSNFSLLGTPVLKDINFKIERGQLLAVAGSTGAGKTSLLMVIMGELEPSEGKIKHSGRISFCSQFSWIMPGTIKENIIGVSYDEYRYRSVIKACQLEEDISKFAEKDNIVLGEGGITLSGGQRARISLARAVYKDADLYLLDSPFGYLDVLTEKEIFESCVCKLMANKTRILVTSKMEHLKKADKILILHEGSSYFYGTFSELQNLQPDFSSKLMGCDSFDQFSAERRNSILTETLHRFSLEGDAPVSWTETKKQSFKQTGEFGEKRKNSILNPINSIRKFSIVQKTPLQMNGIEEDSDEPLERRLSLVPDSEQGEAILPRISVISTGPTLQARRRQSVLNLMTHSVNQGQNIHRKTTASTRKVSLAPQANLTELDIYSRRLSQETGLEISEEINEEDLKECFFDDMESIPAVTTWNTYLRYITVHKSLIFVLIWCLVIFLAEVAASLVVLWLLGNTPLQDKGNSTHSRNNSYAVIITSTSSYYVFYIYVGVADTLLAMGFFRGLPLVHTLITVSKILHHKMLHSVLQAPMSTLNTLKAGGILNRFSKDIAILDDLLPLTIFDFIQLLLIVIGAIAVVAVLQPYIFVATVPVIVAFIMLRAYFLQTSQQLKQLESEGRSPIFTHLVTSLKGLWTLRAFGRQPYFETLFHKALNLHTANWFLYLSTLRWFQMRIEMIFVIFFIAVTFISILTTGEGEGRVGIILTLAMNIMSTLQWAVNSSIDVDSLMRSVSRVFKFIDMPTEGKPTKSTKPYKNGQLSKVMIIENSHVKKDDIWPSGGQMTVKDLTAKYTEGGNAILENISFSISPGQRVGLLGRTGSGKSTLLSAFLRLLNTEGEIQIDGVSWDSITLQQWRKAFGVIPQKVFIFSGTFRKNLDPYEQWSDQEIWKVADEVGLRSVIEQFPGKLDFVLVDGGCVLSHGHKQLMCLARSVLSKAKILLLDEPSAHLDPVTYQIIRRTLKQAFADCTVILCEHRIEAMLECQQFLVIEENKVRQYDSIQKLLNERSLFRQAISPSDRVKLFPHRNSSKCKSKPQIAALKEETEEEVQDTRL

## COc1cccc(CCNC(=O)[C@@H]2CC(=O)N(C)[C@@H](CC(C)C)C(=O)NC3(CC3)C(=O)N[C@H](Cc3ccccc3)COc3ccc4ccccc4c3C(=O)N2)c1 [Example 386, (3′S,7′S,13′R)-13′-benzyl-7′-isobutyl-N-(3-methoxyphenethyl)-6′-methyl-1′,5′,8′,11′-tetraoxo-2′,3′,4′,5′,6′,7′,8′,9′,11′,12′,13′,14′-dodecahydro-1′H-spiro[cyclopropane-1,10′-naphtho[1,2-p][1]oxa[4,7,10,14]tetraazacycloheptadecine]-3′-carboxamide]
[1]
  EC50: 393 nM
[2]
  Emax: 149%

## CC(C)C[C@H]1C(=O)N2CCOC[C@@H]2C(=O)N[C@H](Cc2ccccc2)COc2ccc3ccccc3c2C(=O)N[C@H](C(=O)NCCc2ccc(-n3nccn3)cc2)CC(=O)N1C [Example 387, (4aR,7R,18S,22S)-N-(4-(2H-1,2,3-triazol-2-yl)phenethyl)-7-benzyl-22-isobutyl-21-methyl-5,16,20,23-tetraoxo-1,2,4,4a,5,6,7,8,16,17,18,19,20,21,22,23-hexadecahydronaphtho[1,2-p][1,4]oxazino[3,4-f][1]oxa[4,7,10,14]tetraazacycloheptadecine-18-carboxamide]
[1]
  EC50: 342 nM
[2]
  Emax: 215%

## COc1cccc(CCNC(=O)[C@@H]2CC(=O)N(C)[C@@H](CC(C)C)C(=O)N3CCN(C4CC4)C[C@H]3C(=O)N[C@H](Cc3ccccc3)COc3cnc4ccccc4c3C(=O)N2)c1 [Example 388, (9S,13S,19aS,22R)-22-benzyl-18-cyclopropyl-13-isobutyl-N-(3-methoxyphenethyl)-12-methyl-7,11,14,20-tetraoxo-7,8,9,10,11,12,13,14,17,18,19,19a,20,21,22,23-hexadecahydro-16H-pyrazino[2′,11:6,7][1]oxa[4,7,10,14]tetraazacycloheptadecino[17,16-c]quinoline-9-carboxamide]
[1]
  EC50: 310 nM
[2]
  Emax: 163%

## COc1cccc(CCNC(=O)[C@@H]2CC(=O)N(C)[C@@H](CC(C)C)C(=O)N3CCN(C4CC4)C[C@@H]3C(=O)N[C@H](Cc3ccccc3)COc3cnc4ccccc4c3C(=O)N2)c1 [Example 389, (9S,13S,19aR,22R)-22-benzyl-18-cyclopropyl-13-isobutyl-N-(3-methoxyphenethyl)-12-methyl-7,11,14,20-tetraoxo-7,8,9,10,11,12,13,14,17,18,19,19a,20,21,22,23-hexadecahydro-16H-pyrazino[2′,1′:6,7][1]oxa[4,7,10,14]tetraazacycloheptadecino[17,16-c]quinoline-9-carboxamide]
[1]
  EC50: 115 nM
[2]
  Emax: 320%

## COc1cccc(CCNC(=O)[C@@H]2CC(=O)N(C)[C@@H](CC(C)C)C(=O)N3CCN(C4CCC4)C[C@H]3C(=O)N[C@H](Cc3ccccc3)COc3cnc4ccccc4c3C(=O)N2)c1 [Example 390, (9S,13S,19aS,22R)-22-benzyl-18-cyclobutyl-13-isobutyl-N-(3-methoxyphenethyl)-12-methyl-7,11,14,20-tetraoxo-7,8,9,10,11,12,13,14,17,18,19,19a,20,21,22,23-hexadecahydro-16H-pyrazino[2′,11:6,7][1]oxa[4,7,10,14]tetraazacycloheptadecino[17,16-c]quinoline-9-carboxamide]
[1]
  EC50: 269 nM
[2]
  Emax: 188%

## COc1cccc(CCNC(=O)[C@@H]2CC(=O)N(C)[C@@H](CC(C)C)C(=O)N3CCN(C4CCC4)C[C@@H]3C(=O)N[C@H](Cc3ccccc3)COc3cnc4ccccc4c3C(=O)N2)c1 [Example 391, (9S,13S,19aR,22R)-22-benzyl-18-cyclobutyl-13-isobutyl-N-(3-methoxyphenethyl)-12-methyl-7,11,14,20-tetraoxo-7,8,9,10,11,12,13,14,17,18,19,19a,20,21,22,23-hexadecahydro-16H-pyrazino[2′,1′:6,7][1]oxa[4,7,10,14]tetraazacycloheptadecino[17,16-c]quinoline-9-carboxamide]
[1]
  EC50: 70 nM
[2]
  Emax: 319%

## CC(C)C[C@H]1C(=O)N2CCN(C3CC3)C[C@H]2C(=O)N[C@H](Cc2ccccc2)COc2cnc3ccccc3c2C(=O)N[C@H](C(=O)NCCc2ccc3c(c2)OCO3)CC(=O)N1C [Example 392, (9S,13S,19aS,22R)-N-(2-(benzo[d][1,3]dioxol-5-yl)ethyl)-22-benzyl-18-cyclopropyl-13-isobutyl-12-methyl-7,11,14,20-tetraoxo-7,8,9,10,11,12,13,14,17,18,19,19a,20,21,22,23-hexadecahydro-16H-pyrazino[2′,1′:6,7][1]oxa[4,7,10,14]tetraazacycloheptadecino[17,16-c]quinoline-9-carboxamide]
[1]
  EC50: 327 nM
[2]
  Emax: 144%

## CC(C)C[C@H]1C(=O)N2CCN(C3CC3)C[C@@H]2C(=O)N[C@H](Cc2ccccc2)COc2cnc3ccccc3c2C(=O)N[C@H](C(=O)NCCc2ccc3c(c2)OCO3)CC(=O)N1C [Example 393, (9S,13S,19aR,22R)-N-(2-(benzo[d][1,3]dioxol-5-yl)ethyl)-22-benzyl-18-cyclopropyl-13-isobutyl-12-methyl-7,11,14,20-tetraoxo-7,8,9,10,11,12,13,14,17,18,19,19a,20,21,22,23-hexadecahydro-16H-pyrazino[2′,11:6,7][1]oxa[4,7,10,14]tetraazacycloheptadecino[17,16-c]quinoline-9-carboxamide]
[1]
  EC50: 118 nM
[2]
  Emax: 314%

## CC(C)C[C@H]1C(=O)N2CCN(C3CCC3)C[C@H]2C(=O)N[C@H](Cc2ccccc2)COc2cnc3ccccc3c2C(=O)N[C@H](C(=O)NCCc2ccc3c(c2)OCO3)CC(=O)N1C [Example 394, (9S,13S,19aS,22R)-N-(2-(benzo[d][1,3]dioxol-5-yl)ethyl)-22-benzyl-18-cyclobutyl-13-isobutyl-12-methyl-]
[1]
  EC50: 262 nM
[2]
  Emax: 151%

## CC(C)C[C@H]1C(=O)N2CCN(C3CCC3)C[C@@H]2C(=O)N[C@H](Cc2ccccc2)COc2cnc3ccccc3c2C(=O)N[C@H](C(=O)NCCc2ccc3c(c2)OCO3)CC(=O)N1C [Example 395, (9S,13S,19aR,22R)-N-(2-(benzo[d][1,3]dioxol-5-yl)ethyl)-22-benzyl-18-cyclobutyl-13-isobutyl-12-methyl-7,11,14,20-tetraoxo-7,8,9,10,11,12,13,14,17,18,19,19a,20,21,22,23-hexadecahydro-16H-pyrazino[2′,11:6,7][1]oxa[4,7,10,14]tetraazacycloheptadecino[17,16-c]quinoline-9-carboxamide]
[1]
  EC50: 110 nM
[2]
  Emax: 316%

## COCCCN1C(=O)[C@H](CC(C)C)N(C)C(=O)C[C@@H](C(=O)NCCc2cccc(OC)c2)NC(=O)c2c(ccc3ccccc23)OC[C@@H](Cc2ccccc2)NC(=O)C12CC2 [Example 396, (3′S,7′S,13′R)-13′-benzyl-7′-isobutyl-N-(3-methoxyphenethyl)-9′-(3-methoxypropyl)-6′-methyl-1′,5′,8′,11′-tetraoxo-2′,3′,4′,5′,6′,7′,8′,9′,11′,12′,13′,14′-dodecahydro-1′H-spiro[cyclopropane-1,10′-naphtho[1,2-p][1]oxa[4,7,10,14]tetraazacycloheptadecine]-3′-carboxamide]
[1]
  EC50: 241 nM
[2]
  Emax: 190%

## CCOc1cccc(CCNC(=O)[C@@H]2CC(=O)N(C)[C@@H](CC(C)C)C(=O)N3CCOC[C@@H]3C(=O)N[C@H](Cc3ccccc3)COc3ccc4ccccc4c3C(=O)N2)c1 [Example 397, (4aR,7R,18S,22S)-7-benzyl-N-(3-ethoxyphenethyl)-22-isobutyl-21-methyl-5,16,20,23-tetraoxo-1,2,4,4a,5,6,7,8,16,17,18,19,20,21,22,23-hexadecahydronaphtho[1,2-p][1,4]oxazino[3,4-f][1]oxa[4,7,10,14]tetraazacycloheptadecine-18-carboxamide]
[1]
  EC50: 262 nM
[2]
  Emax: 207%

## CC(C)C[C@H]1C(=O)N2CCN(C3CC3)C[C@@H]2C(=O)N[C@H](Cc2ccccc2)COc2cnc3ccccc3c2C(=O)N[C@H](C(=O)NCCc2cccc(OC(F)F)c2)CC(=O)N1C [Example 398, (9S,13S,19aR,22R)-22-benzyl-18-cyclopropyl-N-(3-(difluoromethoxy)phenethyl)-13-isobutyl-12-methyl-7,11,14,20-tetraoxo-7,8,9,10,11,12,13,14,17,18,19,19a,20,21,22,23-hexadecahydro-16H-pyrazino[2′,11:6,7][1]oxa[4,7,10,14]tetraazacycloheptadecino[17,16-c]quinoline-9-carboxamide]
[3]
  EC50: 125 nM
[4]
  Emax: 280%

## CC(C)C[C@H]1C(=O)N2CCN(C3CC3)C[C@H]2C(=O)N[C@H](Cc2ccccc2)COc2cnc3ccccc3c2C(=O)N[C@H](C(=O)NCCc2cccc(OC(F)F)c2)CC(=O)N1C [Example 399, (9S,13S,19aS,22R)-22-benzyl-18-cyclopropyl-N-(3-(difluoromethoxy)phenethyl)-13-isobutyl-12-methyl-7,11,14,20-tetraoxo-7,8,9,10,11,12,13,14,17,18,19,19a,20,21,22,23-hexadecahydro-16H-pyrazino[2′,1′:6,7][1]oxa[4,7,10,14]tetraazacycloheptadecino[17,16-c]quinoline-9-carboxamide]
[3]
  EC50: 506 nM
[4]
  Emax: 146%

## CCOc1cccc(CCNC(=O)[C@@H]2CC(=O)N(C)[C@@H](CC(C)C)C(=O)N3CCN(C4CC4)C[C@@H]3C(=O)N[C@H](Cc3ccccc3)COc3cnc4ccccc4c3C(=O)N2)c1 [Example 400, (9S,13S,19aR,22R)-22-benzyl-18-cyclopropyl-N-(3-ethoxyphenethyl)-13-isobutyl-12-methyl-7,11,14,20-tetraoxo-7,8,9,10,11,12,13,14,17,18,19,19a,20,21,22,23-hexadecahydro-16H-pyrazino[2′,11:6,7][1]oxa[4,7,10,14]tetraazacycloheptadecino[17,16-c]quinoline-9-carboxamide]
[3]
  EC50: 164 nM
[4]
  Emax: 292%
